From patent US12053476B2, “Compounds, compositions and methods for cancer patient stratification and cancer treatment” (BAYER PHARMA AKTIENGESELLSCHAFT, priority 2016, dated 2024) come the findings set out here.

The subject of series [1] is HeLa cells. Briefly: Follow-up dose-dependent rescue of DNMDP cytotoxicity (competition with DNMDP). It is filed as cell-based, human. To be noted: co-treatment with DNMDP, 48 h; for rescue of DNMDP cytotoxicity / competition (in words): up to 10 μM.
The test system of series [2] is HeLa cells. Briefly: Compound sensitivity testing in cell lines (cell viability, 48 h). It is filed as cell-based, human. On the procedure: 1500 NCI-H1734 or 1000 A549 cells were plated in a 384-well plate in 40 μl of RPMI supplemented with 10% Fetal Bovine Serum and 1% Pen/Strep. 24 hours after plating, a compound-library of 1924 small molecules was added at a concentration of 10 μM. Staurosporine was used a positive control for cytotoxicity at a concentration of 10 μM, and DMSO was used a negative control at a concentration of 1%. All compounds were incubated for 48 hours with indicated small molecules. After 48 hours, 384-well plates were removed from the incubator and allowed to cool to room temperature for 20 minutes. Cell viability was assessed by adding 40 μl of a 25% CELLTITERGLO® (Promega) in PBS with a THERMO COMBI™ or multichannel-pipette and incubated for 10 minutes. The luminescence signal was read using a Perkin-Elmer EnVision. Viability percentage was calculated by normalizing to DMSO controls.
1000 HeLa (DMEM), 1000 A549 (RPMI), 500 MCF-7 (DMEM), 4000 PC3 (F12-K), 1000 NCI-H2122 (RPMI) or 1500 NCI-H1563 (RPMI) cells were plated in a 384-well plate in 40 μl of corresponding growth media supplemented with 10% Fetal Bovine Serum. 24 hours after plating, indicated compounds were added at indicated concentrations and incubated for 48 hours. Cell viability was assessed as described in Compound library screening in NCI-H1734 and A549 cell lines.

The target in a further series is T1, PDE3A(677-1141) (Homo sapiens, UniProt Q14432).
T1 construct: purified PDE3A catalytic domain, PDE3A(677-1141)
Briefly: Differential scanning fluorimetry (DSF) binding to purified PDE3A catalytic domain. To be noted: 5 μM PDE3A, 100 μM compound. The procedure: Binding buffer: 20 mM Hepes pH 7.4, 100 μM TCEP, 1 mM MgCl2, 150 mM NaCl.

Another series has as its target T2, PDE3A (Homo sapiens, UniProt Q14432).
T2 construct: endogenous in cells; host or cells: HeLa
Nature of the series: Linker-affinity purification of molecular target of DNMDP and immunoblotting (competition). In kind it is binding. The note with it: HeLa cell lysate, 10 μM compound. The procedure: To identify the molecular target of DNMDP, an affinity purification was performed using an (R)-des-nitro-DNMDP solid-phase tethered linker analogue (FIG. 10A) incubated with HeLa cell lysate. […] It was competed for the molecular target by adding either an excess of trequinsin or separate enantiomers of DNMDP, where only the (R)-enantiomer was cytotoxic. […] Binding of PDE3A to the linker analogue was blocked by both trequinsin and (R)-DNMDP, but not by the non-cytotoxic enantiomer (S)-DNMDP (FIG. 9C). Thus both trequinsin and (R)-DNMDP prevented the binding of PDE3A to the tethered DNMDP analogue, and it was concluded that both molecules bind PDE3A directly.
HeLa cells were washed with ice-cold PBS before lysed with NP-40 lysis buffer (150 mM NaCl, 10% glycerol, 50 mM Tris-Cl pH 8.0, 50 mM MgCl2, 1% NP-40) supplemented with EDTA-free protease inhibitors (Roche) and phosphatase inhibitor mixtures I and II (Calbiochem). Cell lysates were incubated on ice for at least 2 minutes and subsequently centrifuged for 10 minutes at 4° C. at 15,700×g after which the supernatant was quantified using BCA protein assay kit (Pierce). […] total HeLa cell lysate was incubated with 3 μl Affi-Gel 102 resin (BioRad) coupled to affinity linker DNMDP-2L in a total volume of 400 μl for four hours. Prior to incubation, indicated compounds were added to affinity purifications at a final concentration of 10 μM. Samples were washed three times with lysis buffer containing corresponding compound concentrations of 10 μM. Proteins bound to Affi-Gel 102 resin were reduced, denatured, and separated using Tris-Glycine gels (Novex) and transferred to nitrocellulose membranes using the iBlot transfer system (Novex). Membranes were incubated overnight at 4° C. with primary antibodies against PDE3A (1:1000, Bethyl). Incubation with secondary antibodies (1:20,000, LI-COR Biosciences) for two hours at room temperature and subsequent detection (Odyssey Imaging System, LI-COR Biosciences) were performed according to manufacturer's recommendations.

In series [3] the test system is HeLa cells. Briefly: Bioactives screen to rescue DNMDP induced cytotoxicity. In kind it is cell-based, human. To be noted: 20 μM bioactive + 30 nM DNMDP, 48 h. The source says:
Most importantly, PDE4 competitive inhibitors and PDE4 allosteric modulators with similar IC50s for cAMP hydrolysis in vitro had different cellular activities and safety profiles in animal studies (Burgin et al., Nat Biotechnol 28, 63-70, 2010). To evaluate whether PDE inhibitors or other small molecules compete with DNMDP, the PHARMAKON 1600 collection of 1600 bioactive compounds (PHARMAKON 1600 is a unique collection of 1600 known drugs from US and International Pharmacopeia) was screened to identify compounds that were able to rescue cell death induced by DNMDP. HeLa cells were co-treated with 30 nM DNMDP (the EC70 concentration) and 20 μM of each bioactive compound. Cell viability after 48-hour treatment was assessed by ATP […] as described earlier.
Bioactives Screen to Rescue DNMDP Induced Cytotoxicity 1000 HeLa cells were plated in a 384-well plate in 40 μl of DMEM supplemented with 10% Fetal Bovine Serum and 1% Pen/Strep. 24 hours after plating, a compound-library of 1600 bioactive molecules (Pharmacon) was added at a concentration of 20 μM. In parallel to bioactive compound incubation, DNMDP was added to a final concentration of 30 nM and incubated for 48 hours. Cell viability was assessed as described in Compound library screening in NCI-H1734 and A549 cell lines. Linker-Affinity Purification of Molecular Target of DNMDP and Immunoblotting

Series [4] is described as follows: In vitro metabolic stability in cryopreserved human hepatocytes. In kind it is in vitro ADME. The note with it: 1 μM test compound. The procedure: Investigation of In Vitro Metabolic Stability in Cryopreserved Human Hepatocytes (Including Calculation of Hepatic In Vivo Blood Clearance (CL) and Maximal Oral Bioavailability (Fmax))
Cryopreserved Hepatocytes (e.g. purchased from Celsis InVitroTechnologies) were briefly thawed, washed with 45 mL pre-warmed in in vitro GRO HT medium and centrifuged for 5 min at 50×g. The cell pellet was resuspended in 5 ml of Krebs-Henseleit […] (KHB). Cell viability was determined by trypan blue exclusion.
For the metabolic stability assay liver cells were distributed in WME containing 5% FCS to glass vials at a density of 1.0×10^6 vital cells/ml. The test compound was added to a final concentration of 1 μM. During incubation, the hepatocyte suspensions were continuously shaken at 580 rpm and aliquots were taken at 2, 8, 16, 30, 45 and 90 min, to which equal volumes of cold methanol were immediately added. Samples were frozen at −20° C. over night, after subsequently centrifuged for 15 minutes at 3000 rpm and the supernatant was analyzed with an Agilent 1290 HPLC-system with LCMS/MS detection.
The half-life of a test compound was determined from the concentration-time plot. From the half-life the intrinsic clearances were calculated. […] The hepatic in vivo blood clearance (CL) and the maximal oral bioavailability (Fmax) was calculated.

Bounds are passed on as bounds.

T1 sequence (Q14432 677-1141): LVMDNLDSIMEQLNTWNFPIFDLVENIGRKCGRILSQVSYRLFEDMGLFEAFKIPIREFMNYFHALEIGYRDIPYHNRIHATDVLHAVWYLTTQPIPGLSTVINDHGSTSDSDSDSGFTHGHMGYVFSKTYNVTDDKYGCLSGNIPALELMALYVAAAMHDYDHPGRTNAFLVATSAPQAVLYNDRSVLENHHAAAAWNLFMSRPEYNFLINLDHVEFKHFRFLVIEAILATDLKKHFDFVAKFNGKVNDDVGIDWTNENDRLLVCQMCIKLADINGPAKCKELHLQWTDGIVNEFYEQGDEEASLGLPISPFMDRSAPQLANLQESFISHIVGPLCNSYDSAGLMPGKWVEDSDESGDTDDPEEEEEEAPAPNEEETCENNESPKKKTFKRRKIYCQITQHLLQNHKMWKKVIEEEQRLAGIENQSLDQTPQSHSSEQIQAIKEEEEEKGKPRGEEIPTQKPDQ
T2 sequence (Q14432 whole entry): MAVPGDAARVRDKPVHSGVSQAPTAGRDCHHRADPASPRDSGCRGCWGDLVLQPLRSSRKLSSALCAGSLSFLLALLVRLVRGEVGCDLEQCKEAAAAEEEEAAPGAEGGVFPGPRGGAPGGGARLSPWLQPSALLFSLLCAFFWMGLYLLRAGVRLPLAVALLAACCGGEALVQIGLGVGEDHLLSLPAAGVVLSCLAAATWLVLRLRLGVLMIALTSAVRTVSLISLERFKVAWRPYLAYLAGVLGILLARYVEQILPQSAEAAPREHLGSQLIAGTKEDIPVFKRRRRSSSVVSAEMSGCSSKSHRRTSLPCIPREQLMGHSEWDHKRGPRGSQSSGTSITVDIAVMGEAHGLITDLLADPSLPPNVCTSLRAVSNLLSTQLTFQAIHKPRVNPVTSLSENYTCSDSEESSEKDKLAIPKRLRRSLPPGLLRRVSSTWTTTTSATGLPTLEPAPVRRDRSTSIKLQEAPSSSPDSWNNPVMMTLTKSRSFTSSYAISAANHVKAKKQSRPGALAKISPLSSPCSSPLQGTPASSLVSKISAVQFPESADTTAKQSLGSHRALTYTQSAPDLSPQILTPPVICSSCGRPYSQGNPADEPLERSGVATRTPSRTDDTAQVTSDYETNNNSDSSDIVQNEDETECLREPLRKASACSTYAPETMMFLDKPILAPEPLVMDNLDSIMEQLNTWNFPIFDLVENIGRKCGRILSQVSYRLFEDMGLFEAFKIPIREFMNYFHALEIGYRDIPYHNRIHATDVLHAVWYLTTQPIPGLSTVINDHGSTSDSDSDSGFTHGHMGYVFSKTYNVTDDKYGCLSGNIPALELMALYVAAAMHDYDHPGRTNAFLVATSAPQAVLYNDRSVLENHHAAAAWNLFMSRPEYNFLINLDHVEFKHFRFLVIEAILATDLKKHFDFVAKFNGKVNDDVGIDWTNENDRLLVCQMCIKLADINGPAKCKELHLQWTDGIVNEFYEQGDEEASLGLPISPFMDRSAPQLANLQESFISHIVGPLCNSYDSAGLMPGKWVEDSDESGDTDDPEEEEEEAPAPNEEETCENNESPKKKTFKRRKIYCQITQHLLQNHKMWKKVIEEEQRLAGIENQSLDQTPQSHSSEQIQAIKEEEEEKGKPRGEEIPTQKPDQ

For `CC(C)C(=O)c1c(C(C)C)nn2ccccc12` [idubulast], the “rescue of DNMDP cytotoxicity / competition (in words)” value in the series on HeLa cells [1] is “not effective competitors”.
For `COc1cc2c(cc1OC)-c1c/c(=N\c3c(C)cc(C)cc3C)n(C)c(=O)n1CC2` [Trequinsin, 9,10-dimethoxy-3-methyl-2-(2,4,6-trimethylphenyl)imino-6,7-dihydropyrimido[6,1-a]isoquinolin-4-one, reference compound], in the series on HeLa cells [2], the “effect on HeLa cell viability (in words)” value is “did not affect HeLa cell viability in any detectable way”. Moreover, at PDE3A(677-1141), the midpoint of thermal melting (Tm) came out at 66.2 ± 0.0 °C. Besides, the “blocking of PDE3A binding to the tethered linker analogue” value on PDE3A is listed as “blocked”. Also, the EC50 in the series on HeLa cells [1] (Homo sapiens, read-out: RC50 (the concentration at which it achieved 50% rescue)) was < 1 nM.
In the case of `Cc1[nH]c(=O)c(C#N)cc1-c1ccncc1` [milrinone, 2-methyl-6-oxo-1,6-dihydro-3,4′-bipyridine-5-carbonitrile], the “rescue of DNMDP cytotoxicity / competition (in words)” value in the series on HeLa cells [1] was “able to rescue DNMDP cytotoxicity in a dose-dependent manner”. For the same compound, in the series with HeLa cells [3], the “rescue of cell death induced by DNMDP (rank in screen)” value is “three most potent compounds”.
As to `O=C1CN2Cc3c(ccc(Cl)c3Cl)N=C2N1` [Anagrelide, 6,7-dichloro-1,5-dihydroimidazo (2,1-b)quinazolin-2(3H)-one, reference compound], the Tm on PDE3A(677-1141) was 56.6 ± 0.0 °C.
For `CCN(CC)c1ccc(C2=NNC(=O)C[C@H]2C)cc1[N+](=O)[O-]` [(R)-DNMDP, (R)-6-(4-(diethylamino)-3-nitrophenyl)-5-methyl-4,5-dihydropyridazin-3(2H)-one], the “blocking of PDE3A binding to the tethered linker analogue” value on PDE3A is “blocked”.
Take `C[C@@H]1CC(=O)NN=C1c1ccc(N2CCOCC2)c(F)c1` (single isomer, unassigned) [Compound 3]: at PDE3A(677-1141), the melting temperature (Tm) was found to be 59.0 ± 0.0 °C and the thermal shift (ΔTm) at 100 µM was 6.6 °C. Further, the “mean metabolic stability (Fmax)” value in series [4] came to 49%.
`CCCc1nn(C)c2c(=O)[nH]c(-c3cc(S(=O)(=O)N4CCN(C)CC4)ccc3OCC)nc12` [sildenafil, 1-[4-ethoxy-3-(6,7-dihydro-1-methyl-7-oxo-3-propyl-1H-pyrazolo[4,3-d]pyrimidin-5-yl)phenylsulfonyl]-4-methylpiperazine]: the “rescue of DNMDP cytotoxicity / competition (in words)” value in the series with HeLa cells [1] is given as “not effective competitors”.
Take `CCN(CC)c1ccc(C2=NNC(=O)C[C@@H]2C)cc1[N+](=O)[O-]` [(S)-DNMDP]: the “blocking of PDE3A binding to the tethered linker analogue” value on PDE3A is reported as “not”.
Turning to `CN(C(=O)CCCOc1ccc2[nH]c(=O)ccc2c1)C1CCCCC1` [cilostamide, N-cyclohexyl-N-methyl-4-[(2-oxo-1H-quinolin-6-yl)oxy]butanamide], the “rescue of DNMDP cytotoxicity / competition (in words)” value in the series with HeLa cells [1] is listed as “able to rescue DNMDP cytotoxicity in a dose-dependent manner”.
For `O=C1CCc2cc(OCCCCc3nnnn3C3CCCCC3)ccc2N1` [cilostazol, 6-[4-(1-cyclohexyl-1H-tetrazol-5-yl)butoxy]-3,4-dihydro-2(1H)-quinolinone], the “rescue of cell death induced by DNMDP (rank in screen)” value with HeLa cells [3] is reported as “three most potent compounds”.
